In one data set the target is T1, GC receptor (Homo sapiens, UniProt P47871).
T1 construct: expressed in transfected cells; host or cells: HEK293 cells
Put plainly: GC receptor mediated cAMP production in vitro (HEK293 cells transfected with GC receptor). It counts as cell-based. As to conditions: 20 min at 37° C., read-out: GCGR (nM EC50). The source says: The medium was removed, the cells were lysed, and cAMP values were detected referring to the detection method described for the assay kit.
For orientation: Cyclic AMP is a second messenger, typically raised through Gs and lowered through Gi signalling.

Data set [1] can be described thus: Short-term administration: food intake and body weight in DIO mice. It counts as in vivo. As to conditions: 30 nmol/kg once every 24 h, twice, − decrease; for Rate of change in food intake (%): at 48 hours vs day before administration; for Body weight change: at 48 hours. As to the method:
Method: diet-induced obese mice (DIO) with an average body weight of 52.5 g were divided into model control and test groups, 5 mice in each group. The test samples were dissolved in 10 mM PBS of pH7.4, injected once every 24 h at a dose of 30 nmol/kg, and administered twice. The model group was injected with solvent. Changes in food intake and body weight at 48 hours were measured, and the change rates were calculated compared to the day before administration.

A short description of a further data set: physchem. It counts as physicochemical.
Data set [2] in a line: Accelerated chemical stability in injection solvent system (HPLC-UV). It counts as physicochemical. As to conditions: 14 days, phosphate buffer pH 7.3 with Tween 80 and phenol, main peak area vs day 0. As to the method:
The chemical stability of the compounds of the present invention in injection solution systems was evaluated by an accelerated stability test. Methods: an appropriate amount of compound of Example 1 was weighed, and dissolved in 10 mM pH8.5 sodium hydrogen phosphate buffer. The final pH value of the solution was adjusted to 7.3 with 0.1 N hydrochloric acid, and proper amounts of Tween 80 and phenol were added. The mixture was placed at 10° C. and 37° C. for 14 days, and detected by HPLC-UV. The main peak area was obtained by peak area normalization method, and the changes compared with day 0 were investigated. The HPLC detection method was the same as that in Example 6, and the mobile phase gradient was appropriately adjusted according to the situation of chromatographic peak separation.

Where [3] appears, read: pH 7.5, Solubility, pH 7.5, 10 mM phosphate buffer.
[4] abbreviates: pH 7.5, Solubility, pH 7.5, 20 mM phosphate buffer.
Where [5] appears, read: pH 8, Solubility, pH 8.0, 10 mM phosphate buffer.
Where [6] appears, read: pH 8, Solubility, pH 8.0, 20 mM phosphate buffer.

≈ marks a conversion by molar mass, not a printed value. Numbered stars: 1 amine (or outer) side, 2 acyl side, 3 side chain; on linkers, the order of the positions; unused ones are H or OH. Square brackets hold non-standard residues; d marks the D form. Side chains are listed from the residue outwards. Peptide text beside a SMILES is read from it. * marks the point of attachment. C20 diacid = O=C(O)CCCCCCCCCCCCCCCCCCC(=O)*; C18 diacid = O=C(O)CCCCCCCCCCCCCCCCC(=O)*; γGlu = O=C(O)[C@H](CCC(=O)[*:2])N[*:1]; AEEA = NCCOCCOCC(=O)O; Aib = CC(C)(N)C(=O)O
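Wherever Solubility is given: compound added at 2 mg per mL of phosphate buffer, with the dissolved amount determined in the supernatant.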

T1 sequence (P47871 26-477): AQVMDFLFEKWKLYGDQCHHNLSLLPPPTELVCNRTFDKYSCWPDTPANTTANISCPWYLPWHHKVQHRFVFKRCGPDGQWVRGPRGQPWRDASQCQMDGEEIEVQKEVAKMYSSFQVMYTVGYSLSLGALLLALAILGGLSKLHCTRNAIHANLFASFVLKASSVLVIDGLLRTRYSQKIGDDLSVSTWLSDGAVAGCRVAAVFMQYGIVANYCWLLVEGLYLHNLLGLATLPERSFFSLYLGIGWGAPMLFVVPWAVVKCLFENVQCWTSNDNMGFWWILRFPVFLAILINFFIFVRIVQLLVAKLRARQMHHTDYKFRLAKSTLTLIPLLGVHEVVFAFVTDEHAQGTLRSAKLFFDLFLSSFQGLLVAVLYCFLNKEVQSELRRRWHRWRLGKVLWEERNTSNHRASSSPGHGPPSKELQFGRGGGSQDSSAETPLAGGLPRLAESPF
Method for physchem: 2 mg of the compound was weighed, dissolved in 1 ml of phosphate buffer solutions with different concentrations (10, 20 mM) and different pH values (7.5, 8.0), and centrifuged, and supernatant was taken. The peak area was measured by HPLC (chromatographic column: Aeris widepore XB-C18 3.6 mm, 4.6×150 mm; mobile phase: A: 0.05% TFA, B: 95% acetonitrile; detection wavelength: 214 nm) and compared with a corresponding sample standard solution, and the relative concentration of the test sample solution is calculated.

In the case of `CC(C)C[C@H](NC(=O)[C@H](Cc1c[nH]c2ccccc12)NC(=O)[C@H](C)NC(=O)[C@@H](NC(=O)[C@H](Cc1ccccc1)NC(=O)[C@H](CCC(=O)O)NC(=O)[C@H](CCCCN)NC(=O)[C@H](C)NC(=O)[C@H](C)NC(=O)[C@H](CCCNC(=N)N)NC(=O)[C@H](CCC(=O)O)NC(=O)[C@H](CC(=O)O)NC(=O)[C@H](CC(C)C)NC(=O)[C@H](Cc1ccc(O)cc1)NC(=O)[C@H](CCCCN)NC(=O)[C@H](CO)NC(=O)[C@H](CCCCNC(=O)COCCOCCNC(=O)COCCOCCNC(=O)CC[C@H](NC(=O)CCCCCCCCCCCCCCCCCCC(=O)O)C(=O)O)NC(=O)[C@H](CC(=O)O)NC(=O)[C@H](CO)NC(=O)[C@@H](NC(=O)[C@H](Cc1ccccc1)NC(=O)[C@@H](NC(=O)CNC(=O)[C@H](CCC(N)=O)NC(=O)C(C)(C)NC(=O)[C@@H](N)Cc1c[nH]cn1)[C@@H](C)O)[C@@H](C)O)C(C)C)C(=O)N[C@@H](CCC(=O)O)C(=O)N[C@@H](C)C(=O)NCC(=O)NCC(=O)N1CCC[C@H]1C(=O)N[C@@H](CO)C(=O)N[C@@H](CO)C(=O)NCC(N)=O` [Compound 13] (H-H[Aib]QGTFTSDK([AEEA-AEEA-γGlu-C20 diacid])SKYLDERAAKEFVAWLEAGGPSSG-NH2; N-terminus assumed), the EC50 (usually the concentration needed to bring the measured effect to its halfway point) at GC receptor was found to be 0.033 nM. Further, in data set [1], the “Rate of change in food intake (%)” value is reported as −67% and the “Body weight change” value is -2.3 g. Also, in “physchem” (setting [3]), the solubility (usually the concentration that dissolves in the medium under given conditions) is over 2000 µg/mL. This compound came in with a solubility in “physchem” (setting [4]) of over 2000 µg/mL. Further, the “Change in purity % (10° C.)” value in data set [2] (10° C.) is recorded as −2.8%. The “Change in purity % (37° C.)” value in data set [2] (37° C.) is on record as −6.9%.
`CC[C@H](C)[C@H](NC(=O)[C@H](Cc1ccccc1)NC(=O)[C@H](CCC(=O)O)NC(=O)[C@H](CCCCNC(=O)COCCOCCNC(=O)COCCOCCNC(=O)CC[C@H](NC(=O)CCCCCCCCCCCCCCCCC(=O)O)C(=O)O)NC(=O)[C@H](C)NC(=O)[C@H](C)NC(=O)[C@H](CCCNC(=N)N)NC(=O)[C@H](CCC(=O)O)NC(=O)[C@H](CCC(=O)O)NC(=O)[C@H](CC(C)C)NC(=O)[C@H](Cc1ccc(O)cc1)NC(=O)[C@H](CCCCN)NC(=O)[C@H](CO)NC(=O)[C@H](Cc1ccc(O)cc1)NC(=O)[C@H](CC(=O)O)NC(=O)[C@H](CO)NC(=O)[C@@H](NC(=O)[C@H](Cc1ccccc1)NC(=O)[C@@H](NC(=O)CNC(=O)[C@H](CCC(N)=O)NC(=O)C(C)(C)NC(=O)[C@@H](N)Cc1c[nH]cn1)[C@@H](C)O)[C@@H](C)O)C(=O)N[C@@H](C)C(=O)N[C@@H](Cc1c[nH]c2ccccc12)C(=O)N[C@@H](CC(C)C)C(=O)N[C@@H](CCC(=O)O)C(=O)N[C@@H](C)C(=O)NCC(=O)NCC(=O)N1CCC[C@H]1C(=O)N[C@@H](CO)C(=O)N[C@@H](CO)C(=O)NCC(N)=O` [Compound 28] (H-H[Aib]QGTFTSDYSKYLEERAAK([AEEA-AEEA-γGlu-C18 diacid])EFIAWLEAGGPSSG-NH2; N-terminus assumed): the EC50 on GC receptor amounted to 0.026 nM. Moreover, in data set [1], the “Rate of change in food intake (%)” value was −49% and the “Body weight change” value was -1.3 g.
In the same order, the values of `CC[C@H](C)[C@H](NC(=O)[C@H](Cc1ccccc1)NC(=O)[C@H](CCC(=O)O)NC(=O)[C@H](CCCCN)NC(=O)[C@H](C)NC(=O)[C@H](C)NC(=O)[C@H](CCCNC(=N)N)NC(=O)[C@H](CCC(=O)O)NC(=O)[C@H](CC(=O)O)NC(=O)[C@H](CC(C)C)NC(=O)[C@H](Cc1ccc(O)cc1)NC(=O)[C@H](CCCCN)NC(=O)[C@H](CO)NC(=O)[C@H](CCCCNC(=O)COCCOCCNC(=O)COCCOCCNC(=O)CC[C@H](NC(=O)CCCCCCCCCCCCCCCCC(=O)O)C(=O)O)NC(=O)[C@H](CC(=O)O)NC(=O)[C@H](CO)NC(=O)[C@@H](NC(=O)[C@H](Cc1ccccc1)NC(=O)[C@@H](NC(=O)CNC(=O)[C@H](CCC(N)=O)NC(=O)[C@H](CO)NC(=O)[C@@H](N)Cc1c[nH]cn1)[C@@H](C)O)[C@@H](C)O)C(=O)N[C@@H](C)C(=O)N[C@@H](Cc1c[nH]c2ccccc12)C(=O)N[C@@H](CC(C)C)C(=O)N[C@@H](CCC(=O)O)C(=O)N[C@@H](C)C(=O)NCC(=O)NCC(=O)N1CCC[C@H]1C(=O)N[C@@H](CO)C(=O)N[C@@H](CO)C(=O)NCC(N)=O` [Compound 36] (H-HSQGTFTSDK([AEEA-AEEA-γGlu-C18 diacid])SKYLDERAAKEFIAWLEAGGPSSG-NH2; N-terminus assumed) are 0.069 nM, −46% and -1.7 g.
Regarding `CC(C)C[C@H](NC(=O)[C@H](Cc1c[nH]c2ccccc12)NC(=O)[C@H](CCC(=O)O)NC(=O)[C@@H](NC(=O)[C@H](Cc1ccccc1)NC(=O)[C@H](CCC(=O)O)NC(=O)[C@H](CCCCNC(=O)COCCOCCNC(=O)COCCOCCNC(=O)CC[C@H](NC(=O)CCCCCCCCCCCCCCCCC(=O)O)C(=O)O)NC(=O)[C@H](C)NC(=O)[C@H](CCCCN)NC(=O)[C@H](CCCNC(=N)N)NC(=O)[C@H](CCC(=O)O)NC(=O)[C@H](CC(=O)O)NC(=O)[C@H](CC(C)C)NC(=O)[C@H](Cc1ccc(O)cc1)NC(=O)[C@H](CCCCN)NC(=O)[C@H](CO)NC(=O)[C@H](Cc1ccc(O)cc1)NC(=O)[C@H](CC(=O)O)NC(=O)[C@H](CO)NC(=O)[C@@H](NC(=O)[C@H](Cc1ccccc1)NC(=O)[C@@H](NC(=O)CNC(=O)[C@H](CCC(N)=O)NC(=O)C(C)(C)NC(=O)[C@@H](N)Cc1c[nH]cn1)[C@@H](C)O)[C@@H](C)O)C(C)C)C(=O)N[C@@H](CCC(=O)O)C(=O)N[C@@H](C)C(=O)NCC(=O)NCC(=O)N1CCC[C@H]1C(=O)N[C@@H](CO)C(=O)N[C@@H](CO)C(=O)NCC(N)=O` [Compound 42] (H-H[Aib]QGTFTSDYSKYLDERKAK([AEEA-AEEA-γGlu-C18 diacid])EFVEWLEAGGPSSG-NH2; N-terminus assumed), the half-maximal effective concentration (EC50) at GC receptor is 0.024 nM. The solubility was 1720 µg/mL (≈ 380 µM) in “physchem” (setting [3]), 1510 µg/mL (≈ 334 µM) in the data set “physchem” (setting [4]), over 2000 µg/mL in “physchem” (setting [5]) and over 2000 µg/mL in the data set “physchem” (setting [6]).
On to `CCCCCCCCCCCCCCCC(=O)N[C@@H](CCC(=O)N[C@@H](CCC(=O)NCCCC[C@H](NC(=O)[C@H](C)NC(=O)[C@H](CCCCN)NC(=O)[C@H](CCCNC(=N)N)NC(=O)[C@H](CCC(=O)O)NC(=O)[C@H](CCC(=O)O)NC(=O)[C@H](CC(C)C)NC(=O)[C@H](Cc1ccc(O)cc1)NC(=O)[C@H](CCCCN)NC(=O)[C@H](CO)NC(=O)[C@H](Cc1ccc(O)cc1)NC(=O)[C@H](CC(=O)O)NC(=O)[C@H](CO)NC(=O)[C@@H](NC(=O)[C@H](Cc1ccccc1)NC(=O)[C@@H](NC(=O)CNC(=O)[C@H](CCC(N)=O)NC(=O)C(C)(C)NC(=O)[C@@H](N)Cc1c[nH]cn1)[C@@H](C)O)[C@@H](C)O)C(=O)N[C@@H](CCC(=O)O)C(=O)N[C@@H](Cc1ccccc1)C(=O)N[C@H](C(=O)N[C@@H](CCC(=O)O)C(=O)N[C@@H](Cc1c[nH]c2ccccc12)C(=O)N[C@@H](CC(C)C)C(=O)N[C@@H](CCC(=O)O)C(=O)NCC(=O)NCC(=O)N1CCC[C@H]1C(=O)N[C@@H](CO)C(=O)N[C@@H](CO)C(=O)NCC(N)=O)C(C)C)C(=O)O)C(=O)O` [Compound 62] (HELM PEPTIDE1{H.[Aib].Q.G.T.F.T.S.D.Y.S.K.Y.L.E.E.R.K.A.K.E.F.V.E.W.L.E.G.G.P.S.S.G.[am]}|PEPTIDE2{[CCCCCCCCCCCCCCCC(=O)[*:2]].[gGlu].[gGlu]}$PEPTIDE1,PEPTIDE2,20:R3-3:R2$$$V2.0; N-terminus assumed), for which the EC50 on GC receptor is 0.156 nM. Moreover, the solubility in “physchem” (setting [3]) is 1170 µg/mL (≈ 276 µM); in “physchem” (setting [4]), 850 µg/mL (≈ 200 µM); in the data set “physchem” (setting [5]), 1630 µg/mL (≈ 384 µM); in the data set “physchem” (setting [6]), 1590 µg/mL (≈ 375 µM).
Regarding `CCCCCCCCCCCCCCCC(=O)N[C@@H](CCC(=O)N[C@@H](CCC(=O)NCCCC[C@H](NC(=O)[C@H](C)NC(=O)[C@H](CCCCN)NC(=O)[C@H](CCCNC(=N)N)NC(=O)[C@H](CCC(=O)O)NC(=O)[C@H](CC(=O)O)NC(=O)[C@H](CC(C)C)NC(=O)[C@H](Cc1ccc(O)cc1)NC(=O)[C@H](CCCCN)NC(=O)[C@H](CO)NC(=O)[C@H](Cc1ccc(O)cc1)NC(=O)[C@H](CC(=O)O)NC(=O)[C@H](CO)NC(=O)[C@@H](NC(=O)[C@H](Cc1ccccc1)NC(=O)[C@@H](NC(=O)CNC(=O)[C@H](CCC(N)=O)NC(=O)C(C)(C)NC(=O)[C@@H](N)Cc1c[nH]cn1)[C@@H](C)O)[C@@H](C)O)C(=O)N[C@@H](CCC(=O)O)C(=O)N[C@@H](Cc1ccccc1)C(=O)N[C@H](C(=O)N[C@@H](CCC(=O)O)C(=O)N[C@@H](Cc1c[nH]c2ccccc12)C(=O)N[C@@H](CC(C)C)C(=O)N[C@@H](CCC(=O)O)C(=O)NCC(=O)NCC(=O)N1CCC[C@H]1C(=O)N[C@@H](CO)C(=O)N[C@@H](CO)C(=O)NCC(N)=O)C(C)C)C(=O)O)C(=O)O` [Compound 69] (HELM PEPTIDE1{H.[Aib].Q.G.T.F.T.S.D.Y.S.K.Y.L.D.E.R.K.A.K.E.F.V.E.W.L.E.G.G.P.S.S.G.[am]}|PEPTIDE2{[CCCCCCCCCCCCCCCC(=O)[*:2]].[gGlu].[gGlu]}$PEPTIDE1,PEPTIDE2,20:R3-3:R2$$$V2.0; N-terminus assumed), the EC50 on GC receptor was 0.261 nM. Besides, the solubility in “physchem” (setting [3]) and in “physchem” (setting [4]) was over 2000 µg/mL each time.

The record behind these values is patent publication US12257287B2, “Glucagon-derived peptide and use thereof” (Tianjin Institute of Pharmaceutical Research Co., Ltd., priority 2018, dated 2025).
